Experimental data: patent US20230357253A1, “AGONISTS OF STIMULATOR OF INTERFERON GENES STING” (THE SCRIPPS RESEARCH INSTITUTE, priority 2020, published 2023)

Assays:
THP-1 Lucia ISG cells = test: ISRE-luciferase assay (ISG-LUC activation); format: cell-based; conditions: Homo sapiens, THP1-Lucia ISG, 24 hours, luciferase reporter
In short: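 THP-1 Lucia ISG cells at 5×10^5 cells/ml in 2% FBS medium were treated with test article or DMSO vehicle for 24 h. Secreted luciferase was read by luminescence and normalized to vehicle, reported as RLU.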

human STING protein = human STING protein (Homo sapiens (Human), UniProt Q86WV6); test: WT STING binding assay (HTRF, competition with labeled 2′3′cGAMP); conditions: recombinant 6×His-tagged human STING, three hours at room temperature
Procedure: WT STING binding assay (Cisbio, Catalog #64BDSTGPEH). […] Upon proximity of the two dyes, the excitation of the donor by the flash lamp on the PHERAstar FSX plate reader triggers a Fluorescence Resonance Energy Transfer (FRET) towards the acceptor, which in turn fluoresces at 665 nm. To assess the ability of the synthetic small molecule STING ligands to bind to human STING, a competitive assay format was applied. A 10-point titration of each of the synthetic ligands in 5 uL were transferred into a 384 well plate, followed by 20 uL of assay buffer containing the 6×His-tagged human STING protein and labeled 2′3′cGAMP ligand and incubated for three hours at room temperature. The raw values obtained from the PHERAstar were used to calculate the reported IC50 values (the signal is inversely proportional to the binding of the synthetic ligand) through curve fitting in Genedata. The percent inhibition was calculated based upon the maximal amount of binding by synthetic compound versus the maximum binding of unlabeled 2′3′ cGAMP which was used as a control in each assay.

Sequence of human STING protein (Q86WV6 whole entry): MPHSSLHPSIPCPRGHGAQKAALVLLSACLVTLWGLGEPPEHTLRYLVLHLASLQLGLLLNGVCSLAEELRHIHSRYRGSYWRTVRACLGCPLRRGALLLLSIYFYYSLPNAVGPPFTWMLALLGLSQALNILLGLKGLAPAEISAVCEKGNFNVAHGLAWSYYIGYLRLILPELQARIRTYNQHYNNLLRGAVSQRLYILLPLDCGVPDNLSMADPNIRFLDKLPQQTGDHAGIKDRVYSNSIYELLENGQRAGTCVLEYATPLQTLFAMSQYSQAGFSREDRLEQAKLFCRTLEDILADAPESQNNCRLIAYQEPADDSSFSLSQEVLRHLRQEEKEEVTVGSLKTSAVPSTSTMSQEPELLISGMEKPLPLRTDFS

| Structure (SMILES) | EC50 (THP-1 Lucia ISG cells) | IC50 (human STING protein) |
| --- | --- | --- |
| O=C(Nc1cc(OCCCCOc2cc(NC(=O)c3ccc4nnnn4n3)c(C(=O)O)cc2F)ccc1C(=O)O)c1ccc2nnnn2n1 [Compound 1, 4-(4-(4-carboxy-3-(tetrazolo[1,5-b]pyridazine-6-carboxamido)phenoxy)butoxy)-5-fluoro-2-(tetrazolo[1,5-b]pyridazine-6-carboxamido)benzoic acid] | 500 to 5000 nM | 100 to 1000 nM |
| O=C(Nc1cc(CCOc2cc(NC(=O)c3ccc4nnnn4n3)c(C(=O)O)cc2F)c(F)cc1C(=O)O)c1ccc(-n2ccnc2)nn1 [Compound 2, 2-(6-(1H-imidazol-1-yl)pyridazine-3-carboxamido)-4-(2-(4-carboxy-2-fluoro-5-(tetrazolo[1,5-b]pyridazine-6-carboxamido)phenoxy)ethyl)-5-fluorobenzoic acid] | < 50 nM | 10 to 100 nM |
| O=C(Nc1cc(C[S+]([O-])Cc2cc(NC(=O)c3ccc(-n4ccnc4)nn3)c(C(=O)O)cc2F)c(F)cc1C(=O)O)c1ccc(-n2ccnc2)nn1 [Compound 7, 4,4′-(sulfinylbis(methylene))bis(2-(6-(1H-imidazol-1-yl)pyridazine-3-carboxamido)-5-fluorobenzoic acid)] | 500 to 5000 nM | 10 to 100 nM |
| CN(Cc1cc(NC(=O)c2ccc(-n3ccnc3)nn2)c(C(=O)O)cc1F)Cc1cc(NC(=O)c2ccc(-n3ccnc3)nn2)c(C(=O)O)cc1F [Compound 8, 4,4′-((methylazanediyl)bis(methylene))bis(2-(6-(1H-imidazol-1-yl)pyridazine-3-carboxamido)-5-fluorobenzoic acid)] | 500 to 5000 nM | < 10 nM |
| O=C(Nc1cc(OCCCCOc2cc(NC(=O)c3ccc4nnnn4n3)c(C(=O)O)cc2F)c(F)cc1C(=O)O)c1ccc2nnnn2n1 [Compound 12] | 50 to 500 nM | 100 to 1000 nM |
| O=C(Nc1cc(OCCCCOc2ccc(C(=O)O)c(NC(=O)c3ccc(-n4ccnc4)nn3)c2)ccc1C(=O)O)c1ccc(-n2ccnc2)nn1 [Compound 16] | > 5000 nM | 100 to 1000 nM |
| O=C(Nc1cc(OCCCCOc2cc(NC(=O)c3ccc(-n4ccnc4)nn3)c(C(=O)O)cc2F)c(F)cc1C(=O)O)c1ccc(-n2ccnc2)nn1 [Compound 17] | 500 to 5000 nM | 100 to 1000 nM |
| O=C(Nc1cc(OCCCCOc2cc(NC(=O)c3ccc(-n4ccnc4)nn3)c(C(=O)O)cc2F)c(F)cc1C(=O)O)c1ccc(O)nn1 [Compound 18] | > 5000 nM | 100 to 1000 nM |
| O=C(Nc1cc(OCCCCOc2ccc(C(=O)O)c(NC(=O)c3ccc4nnnn4n3)c2)ccc1C(=O)O)c1ccc(-n2ccnc2)nn1 [Compound 20] | > 5000 nM | 100 to 1000 nM |
| O=C(Nc1cc(OCCCCOc2cc(NC(=O)c3ccc4nnnn4n3)c(C(=O)O)cc2F)c(F)cc1C(=O)O)c1ccc(-n2ccnc2)nn1 [Compound 22] | > 5000 nM | 100 to 1000 nM |
| O=c1oc(-c2ccc(-n3ccnc3)nn2)nc2cc(OCCCCOc3cc4nc(-c5ccc(-n6ccnc6)nn5)oc(=O)c4cc3F)ccc12 [Compound 46] | 500 to 5000 nM | 100 to 1000 nM |
| O=C(Nc1cc(OCCCCOc2cnc(C(=O)O)c(NC(=O)c3ccc(-n4ccnc4)nn3)c2)c(F)cc1C(=O)O)c1ccc(-n2ccnc2)nn1 [Compound 69] |  | 100 to 1000 nM |
| CC(=O)Nc1cc(CCCc2cc(NC(=O)c3ccc(-n4ccnc4)nn3)c(C(=O)O)cc2F)ccc1C(=O)O [Compound 73] |  | 100 to 1000 nM |
| O=C(Nc1cc(OCCCCOc2cc(NC(=O)c3ccc(-n4ccnc4)nn3)c(C(=O)O)cc2Cl)ccc1C(=O)O)c1ccc(-n2ccnc2)nn1 [Compound 81] |  | 100 to 1000 nM |
| O=C(Nc1cc(CCCc2cc(NC(=O)c3ccc4cnnn4n3)c(C(=O)O)cc2F)c(F)cc1C(=O)O)c1ccc(O)nn1 [Compound 120] |  | 100 to 1000 nM |
| CCOC(=O)CCC(=O)c1cc2cc(OCCc3cc(NC(=O)c4ccc5nnnn5n4)c(C(=O)O)cc3F)c(OC)cc2s1 [Compound 122] |  | 100 to 1000 nM |
| O=C(Nc1cc(CCOc2cc(NC(=O)c3ccc(-n4ccnc4)nn3)c(P(=O)(O)O)cc2F)c(F)cc1C(=O)O)c1ccc(-n2ccnc2)nn1 [Compound 153] |  | 100 to 1000 nM |
| O=C(Nc1cc(OCCc2cc(NC(=O)c3ccc(-n4ccnc4)nn3)c(C(=O)O)cc2F)c(F)cc1C(=O)O)c1ccc(-c2cn[nH]c2)nn1 [Compound 158] |  | 100 to 1000 nM |
| O=C(Nc1cc(OCCCOc2cc(NC(=O)c3ccc(-n4ccnc4)nn3)c(C(=O)O)cc2F)c(F)cc1C(=O)O)c1ccc(-n2ccnc2)nn1 [Compound 168] | 50 to 500 nM |  |
| O=C(Nc1cc(OCCc2cc(C(=O)O)c(NC(=O)c3ccc4nnnn4n3)cc2F)c(F)cc1C(=O)O)c1ccc(-n2ccnc2)nn1 [Compound 169] | 50 to 500 nM |  |
| O=C(Nc1cc(CCCc2cc(NC(=O)c3ccc(-n4ccnc4)nn3)c(C(=O)O)cc2Cl)c(F)cc1C(=O)O)c1ccc(-n2ccnc2)nn1 [Compound 174] | 50 to 500 nM |  |

| Structure (SMILES) | EC50 (THP-1 Lucia ISG cells) | IC50 (human STING protein) |
| --- | --- | --- |
| O=C(Nc1cc(COc2cc(NC(=O)c3ccc(-n4ccnc4)nn3)c(C(=O)O)cc2F)c(F)cc1C(=O)O)c1ccc(-n2ccnc2)nn1 [Compound 175] | 500 to 5000 nM |  |
| O=C(Nc1cc(OCCc2c(F)cc(NC(=O)c3ccc(-n4ccnc4)nn3)c(C(=O)O)c2F)c(F)cc1C(=O)O)c1ccc(-n2ccnc2)nn1 [Compound 177] | < 50 nM |  |
| O=C(Nc1cc(F)c(CCOc2cc(C(=O)O)c(NC(=O)c3ccc(-n4ccnc4)nn3)cc2F)cc1C(=O)O)c1ccc(-n2ccnc2)nn1 [Compound 178] |  | 100 to 1000 nM |
| O=C(Nc1cc(OCCc2cc(NC(=O)c3ccc(-n4ccnc4)nn3)c(-c3nn[nH]n3)cc2F)c(F)cc1C(=O)O)c1ccc(-n2ccnc2)nn1 [Compound 179] |  | 100 to 1000 nM |
| O=C(Nc1cc(CCc2cc(C(=O)O)c(NC(=O)c3ccc(-n4ccnc4)nn3)cc2F)c(F)cc1C(=O)O)c1ccc(-n2ccnc2)nn1 [Compound 180] | > 5000 nM |  |
| N#Cc1cc(C(=O)O)c(NC(=O)c2ccc(-n3ccnc3)nn2)cc1CCCc1cc(NC(=O)c2ccc(-n3ccnc3)nn2)c(C(=O)O)cc1F [Compound 182] | 50 to 500 nM |  |
| NC(=O)c1cc(F)c(CCOc2cc(NC(=O)c3ccc(-n4ccnc4)nn3)c(C(=O)O)cc2F)cc1NC(=O)c1ccc(-n2ccnc2)nn1 [Compound 186] |  | > 1000 nM |
| COC(=O)c1cc(F)c(OCCc2cc(C(=O)OC)c(NC(=O)c3ccc(-n4ccnc4)nn3)cc2C#N)cc1NC(=O)c1ccc(-n2ccnc2)nn1 [Compound 188] | > 5000 nM |  |
| COc1cc(NC(=O)c2ccc(-n3ccnc3)nn2)c(C(=O)O)c(F)c1OCCc1cc(NC(=O)c2ccc(-n3ccnc3)nn2)c(C(=O)O)cc1F [Compound 189] |  | 100 to 1000 nM |
| O=C(Nc1cc(OCc2cc(C(=O)O)c(NC(=O)c3ccc(-n4ccnc4)nn3)cc2F)c(F)cc1C(=O)O)c1ccc(-n2ccnc2)nn1 [Compound 190] | > 5000 nM |  |
| O=C(Nc1cc(OCCOc2cc(C(=O)O)c(NC(=O)c3ccc(-n4ccnc4)nn3)cc2F)c(F)cc1C(=O)O)c1ccc(-n2ccnc2)nn1 [Compound 191] | 50 to 500 nM |  |
| CC(Cc1cc(NC(=O)c2ccc(-n3ccnc3)nn2)c(C(=O)O)cc1F)Cc1cc(NC(=O)c2ccc(-n3ccnc3)nn2)c(C(=O)O)cc1F [Compound 194] | 50 to 500 nM |  |
| O=C(Nc1cc(CCSc2cc(NC(=O)c3ccc(-n4ccnc4)nn3)c(C(=O)O)cc2F)c(F)cc1C(=O)O)c1ccc(-n2ccnc2)nn1 [Compound 195] | < 50 nM |  |
| O=C(Nc1cc(CCOc2cc(NC(=O)c3ccc(-n4ccnc4)nn3)c(C(=O)O)cc2F)c(F)cc1CO)c1ccc(-n2ccnc2)nn1 [Compound 198] |  | 100 to 1000 nM |
| C=C(Cc1cc(NC(=O)c2ccc(-n3ccnc3)nn2)c(C(=O)O)cc1F)Cc1cc(NC(=O)c2ccc(-n3ccnc3)nn2)c(C(=O)O)cc1F [Compound 199] | 50 to 500 nM |  |
| Cn1nccc1-c1ccc(C(=O)Nc2cc(CCCc3cc(NC(=O)c4ccc(-c5ccnn5C)nn4)c(C(=O)O)cc3F)c(F)cc2C(=O)O)nn1 [Compound 201] |  | 100 to 1000 nM |
| O=C(Nc1cc(OCCc2cc(C(=O)O)c(NC(=O)c3ccc(-c4cn[nH]c4)nn3)cc2F)c(F)cc1C(=O)O)c1ccc(-c2cn[nH]c2)nn1 [Compound 204] | 50 to 500 nM |  |
| O=C(Nc1cc(CCOc2cc(NC(=O)c3ccc(-n4ccnc4)nn3)c(C(=O)O)cc2F)c(F)cc1C(=O)O)c1ccc(-c2cn[nH]c2)nn1 [Compound 205] | < 50 nM |  |
| Cn1nccc1-c1ccc(C(=O)Nc2cc(CCOc3cc(NC(=O)c4ccc(-c5ccnn5C)nn4)c(C(=O)O)cc3F)c(F)cc2C(=O)O)nn1 [Compound 208] |  | 100 to 1000 nM |
| C#Cc1cc(NC(=O)c2ccc(-n3ccnc3)nn2)c(C(=O)O)cc1OCCc1cc(NC(=O)c2ccc(-n3ccnc3)nn2)c(C(=O)O)cc1F [Compound 209] | < 50 nM |  |
| O=C(Nc1cc(OCCCOc2cc(NC(=O)c3ccc(-n4ccnc4)nn3)c(C(=O)O)cc2F)c(F)cc1C(=O)O)c1ccc(N2CCOCC2)nn1 [Compound 211] |  | 100 to 1000 nM |
